From patent US7198946B2, “Screening for agents effective in decreasing abnormal macrophages associated with amyotrophic lateral sclerosis” (Pathologica, LLC, priority 2001, dated 2007) come the findings set out here.

The test has as its system CD14+ circulating monocytes from ALS patients. The test is described as follows: Effect of polyamine analogs on CD14+ monocytes in cultured PBMCs, anti-CD14 flow cytometry. In kind it is cell-based, human. The conditions noted are these: 1.0 μM SL-11047, 6 days incubation; 6 ALS patients vs 1 normal subject and 1 MS patient (FIG. 5). The source says:
Peripheral blood mononuclear cells (PBMCs) are isolated from heparin-treated whole blood by layering over Percoll, density 1.087, (Pharmacia, Piscataway, N.J.) and followed by centrifugation at 800×g. The cells that collect at the Percoll/plasma interface are harvested and washed with 0.01 M phosphate-buffered saline (PBS). Isolated cells are then suspended in RPMI 1640 culture medium, with 10% fetal bovine serum, at a concentration of about 1×10^6 cells/ml. Cells are allocated to polyvinyl culture tubes at 1 ml/tube. A polyamine analog such as SL-11047 is added to 3 tubes, to achieve final concentrations of 1.0, 0.1, and 0.01 micromolar. A fourth tube, for control, receives no (zero) drug. […]
On the […] of incubation, cells are removed from the incubator, washed with PBS and resuspended in PBS at 0.1 ml/tube. Detection of monocytes is detected by addition of fluorescein-conjugated anti-CD14 (DAKO Corp., Carpenteria, Calif.), for 20 minutes, at room temperature, protected from light. […]
An experiment as described above was performed with CD14+ circulating monocytes from 6 ALS patients, 1 multiple sclerosis (MS) patient and 1 normal (non-ALS) control subject. In this experiment, the cells from a patient were incubated with or without polyamine analog SL-11047 for 6 days and survival of CD14+ cells was determined. […]

Take `CCNCCCNC/C=C\CNCCCNCC.Cl.Cl.Cl.Cl` [SL-11047, N,N′-bis(3-ethylaminopropyl)-cis-but-2-ene-1,4-diamine tetrahydrochloride]: the “susceptibility to killing (percentage of CD14+ cells killed)” value is on record as “substantially more susceptible to killing”.
